From patent publication US7265103B2, “Substituted amino isoxazoline derivatives and their use as anti-depressants” (Janssen Pharmaceutica NV., priority 2002, dated 2007) come the findings set out here.

One assay deals with T1, hα2A receptor (Homo sapiens, UniProt P08913).
T1 construct: expressed in transfected cells; host or cells: CHO cells
T1 sequence (P08913 1-465): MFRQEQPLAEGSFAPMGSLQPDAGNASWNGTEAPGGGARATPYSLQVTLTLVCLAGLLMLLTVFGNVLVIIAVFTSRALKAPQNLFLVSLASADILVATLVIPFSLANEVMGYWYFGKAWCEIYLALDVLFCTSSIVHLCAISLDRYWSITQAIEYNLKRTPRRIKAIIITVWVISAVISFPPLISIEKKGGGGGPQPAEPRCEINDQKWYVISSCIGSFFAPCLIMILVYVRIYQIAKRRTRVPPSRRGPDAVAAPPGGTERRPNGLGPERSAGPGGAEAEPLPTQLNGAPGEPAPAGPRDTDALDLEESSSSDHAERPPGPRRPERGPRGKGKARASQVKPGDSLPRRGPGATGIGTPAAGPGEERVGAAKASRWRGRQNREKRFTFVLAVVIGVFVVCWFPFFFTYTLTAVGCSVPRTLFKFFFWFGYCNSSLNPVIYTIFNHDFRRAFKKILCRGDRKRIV
Description: Radioligand binding experiment for α2A-adrenergic receptor ([3H]-raulwolscine). The conditions noted are these: CHO cell membranes with human α2A receptor, [3H]raulwolscine 1 nM; read-out: pIC50 α2A (converted). On the procedure:
(§1) The interaction of the compounds of Formula (I) with hα2-receptors and h5-HT-transporters was assessed in in vitro radioligand binding experiments. In general, a low concentration of a radioligand with a high binding affinity for a particular receptor or transporter is incubated with a sample of a tissue preparation enriched in a particular receptor or transporter or with a preparation of cells expressing cloned human receptors in a buffered medium. During the incubation, the radioligand binds to the receptor or transporter. When equilibrium of binding is reached, the receptor bound radioactivity is separated from the non-bound radioactivity, and the receptor- or transporter-bound activity is counted. The interaction of the test compounds with the receptor is assessed in competition binding experiments. Various concentrations of the test compound are added to the incubation mixture containing the receptor- or transporter preparation and the radioligand. The test compound in proportion to its binding affinity and its concentration inhibits binding of the radioligand. The radioligand used for hα2A, hα2B and hα2C receptor binding was [^3H]-raulwolscine and for the h5-HT transporter was [^3H]paroxetine.
(§2) CHO cells, stabile transfected with human adrenergic-α2A-, -α2B or α2C receptor cDNA, were cultured in Dulbecco's Modified Eagle's Medium (DMEM)/Nutrient mixture Ham's F12 (ratio 1:1)(Gibco, Gent-Belgium) supplemented with 10% heat inactivated fetal calf serum (Life Technologies, Merelbeke-Belgium) and antibiotics (100 IU/ml penicillin G, 100 μg/ml streptomycin sulphate, 110 μg/ml pyruvic acid and 100 μg/ml L-glutamine). One day before collection, cells were induced with 5 mM sodiumbutyrate. Upon 80-90% of confluence, cells were scraped in phosphate buffered saline without Ca^2+ and Mg^2+ and collected by centrifugation at 1500×g for 10 min. The cells were homogenised in Tris-HCl 50 mM using an Ultraturrax homogenizer and centrifuged for 10 min at 23,500×g. The pellet was washed once by resuspension and rehomogenization and the final pellet was resuspended in Tris-HCl, divided in 1 ml aliquots and stored at −70° C.
(§3) Membranes were thawed and re-homogenized in incubation buffer (glycylglycine 25 mM, pH 8.0). In a total volume of 500 μl, 2-10 μg protein was incubated with [^3H]raulwolscine (NET-722) (New England Nuclear, USA) (1 nM final concentration) with or without competitor for 60 min at 25° C. followed by rapid filtration over GF/B filter using a Filtermatel 96 harvester (Packard, Meriden, Conn.). Filters were rinsed extensively with ice-cold rinsing buffer (Tris-HCl 50 mM pH 7.4). Filter-bound radioactivity was determined by scintillation counting in a Topcount (Packard, Meriden, Conn.) and results were expressed as counts per minute (cpm). Non-specific binding was determined in the presence of 1 μM oxymetazoline for hα2A- and hα2B receptors and 1 μM spiroxatrine for hα2C receptors.
(§4) Data from assays in the presence of compound were calculated as a percentage of total binding measured in the absence of test compound. Inhibition curves, plotting percent of total binding versus the log value of the concentration of the test compound, were automatically generated, and sigmoidal inhibition curves were fitted using non-linear regression. The pIC50 values of test compounds were derived from individual curves.

In a further assay the target is T2, hα2C receptor (Homo sapiens, UniProt P18825).
T2 construct: expressed in transfected cells; host or cells: CHO cells
T2 sequence (P18825 1-462): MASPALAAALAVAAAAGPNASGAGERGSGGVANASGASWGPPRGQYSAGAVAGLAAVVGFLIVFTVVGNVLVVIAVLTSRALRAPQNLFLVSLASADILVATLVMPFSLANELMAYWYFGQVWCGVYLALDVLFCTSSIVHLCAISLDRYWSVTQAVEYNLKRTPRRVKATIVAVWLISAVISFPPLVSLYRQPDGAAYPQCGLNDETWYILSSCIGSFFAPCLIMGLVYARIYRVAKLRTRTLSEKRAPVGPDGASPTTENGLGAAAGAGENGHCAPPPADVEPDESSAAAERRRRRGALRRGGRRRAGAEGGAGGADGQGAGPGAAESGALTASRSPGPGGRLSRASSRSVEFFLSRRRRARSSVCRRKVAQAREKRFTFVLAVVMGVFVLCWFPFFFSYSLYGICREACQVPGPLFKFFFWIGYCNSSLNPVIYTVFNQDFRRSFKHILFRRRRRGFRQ
In words: Radioligand binding experiment for α2C-adrenergic receptor ([3H]-raulwolscine). The conditions noted are these: CHO cell membranes with human α2C receptor, [3H]raulwolscine 1 nM; read-out: pIC50 α2C (converted). The method, then:
as §1, §2, §3, §4

A further assay has as its target T3, h5-HT transporter (Homo sapiens, UniProt P31645).
T3 construct: Human platelet membranes (Oceanix Biosciences Corporation, Hanover, Md., USA) were thawed; tissue Oceanix Biosciences Corporation; host or cells: human platelet membranes
In words: Radioligand binding experiment for 5-HT transporter ([3H]paroxetine). As to conditions: human platelet membranes, [3H]paroxetine 0.5 nM. The method, then: as §1
Human platelet membranes (Oceanix Biosciences Corporation, Hanover, Md., USA) were thawed, diluted in buffer (Tris-HCl 50 mM, 120 mM NaCl and 5 mM KCl) and quickly (max 3 s) homogenised with an Ultraturrax homogenizer. In a total volume of 250 μL, 50-100 μg protein was incubated with [^3H]paroxetine (NET-869) (New England Nuclear, USA) (0.5 nM final concentration) with or without competitor for 60 min at 25° C. Incubation was stopped by rapid filtration of the incubation mixture over GF/B filters, pre-wetted with 0.1% polyethyleneamine, using a Filtermatel 96 harvester (Packard, Meriden, Conn.). Filters were rinsed extensively with ice-cold buffer and radioactivity on the filters was counted in a Topcount liquid scintillation counter (Packard, Meriden, Conn.). Data were expressed as cpm. Imipramine (at 1 μM final concentration) was used to determine the non-specific binding.
as §4

T3 sequence (P31645 whole entry): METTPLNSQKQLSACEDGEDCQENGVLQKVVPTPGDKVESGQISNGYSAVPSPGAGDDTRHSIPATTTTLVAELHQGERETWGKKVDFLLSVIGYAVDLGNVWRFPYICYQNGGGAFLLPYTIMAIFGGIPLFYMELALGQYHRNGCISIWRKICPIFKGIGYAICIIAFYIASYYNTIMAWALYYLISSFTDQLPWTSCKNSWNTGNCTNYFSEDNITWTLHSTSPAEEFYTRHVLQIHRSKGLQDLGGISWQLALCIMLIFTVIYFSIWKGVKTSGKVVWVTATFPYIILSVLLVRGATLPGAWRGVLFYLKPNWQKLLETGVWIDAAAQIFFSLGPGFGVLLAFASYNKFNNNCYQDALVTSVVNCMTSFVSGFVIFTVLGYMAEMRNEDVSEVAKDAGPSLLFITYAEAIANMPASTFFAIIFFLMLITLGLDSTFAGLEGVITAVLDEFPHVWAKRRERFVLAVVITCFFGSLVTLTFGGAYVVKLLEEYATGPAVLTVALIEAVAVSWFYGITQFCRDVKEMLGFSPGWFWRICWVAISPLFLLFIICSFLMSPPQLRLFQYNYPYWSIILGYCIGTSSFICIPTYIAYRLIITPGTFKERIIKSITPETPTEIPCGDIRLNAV

Regarding `COc1cc2c(cc1Nc1ccncc1)OCC1C2=NOC1CN1CCN(CC(C)=Cc2ccc(F)cc2)CC1` (stereo not drawn) [Compound 100], the IC50 on hα2A receptor is 10 nM; on hα2C receptor it was 5.01 nM; at h5-HT transporter it was 10 nM.
Consider `COc1cc2c(cc1N1CCCC1C)OCC1C2=NOC1CN1CCN(CC(C)=Cc2ccc(F)cc2)CC1` (stereo not drawn) [Compound 101], for which the values for the IC50 at hα2A receptor, at hα2C receptor and on h5-HT transporter were 39.8 nM, 31.6 nM and 158 nM, respectively.
Taken in the same sequence, the figures for `COc1cc2c(cc1N1CCC1)OCC1C2=NOC1CN1CCN(CC(C)=Cc2ccc(F)cc2)CC1` (stereo not drawn) [Compound 102] were 20 nM, 15.8 nM and 50.1 nM.
Regarding `COc1cc2c(cc1N1CCC(C)CC1)OCC1C2=NOC1CN1CCN(CC(C)=Cc2ccc(F)cc2)CC1` (stereo not drawn) [Compound 103], the IC50 on hα2A receptor was 79.4 nM; at hα2C receptor it was 63.1 nM; at h5-HT transporter, 126 nM.
For `CCC(C)CNc1cc2c(cc1OC)C1=NOC(CN3CCN(CC(C)=Cc4ccc(F)cc4)CC3)C1CO2` (stereo not drawn) [Compound 104], the IC50 is 126 nM at hα2A receptor, 126 nM at hα2C receptor and 316 nM at h5-HT transporter.
Turning to `CCNc1cc2c(cc1OC)C1=NOC(CN3CCN(CC(C)=Cc4ccc(F)cc4)CC3)C1CO2` (stereo not drawn) [Compound 105], the figures for the IC50 on hα2A receptor, at hα2C receptor and on h5-HT transporter were 50.1 nM, 31.6 nM and 20 nM, respectively.
For `C=CC(=O)Nc1cc2c(cc1OC)C1=NOC(CN3CCN(CC(C)=Cc4ccc(F)cc4)CC3)C1CO2` (stereo not drawn) [Compound 106], the IC50 is 6.31 nM at hα2A receptor, 12.6 nM at hα2C receptor and 31.6 nM at h5-HT transporter.
Taken in the same sequence, the figures for `COc1cc2c(cc1N1CCC1=O)OCC1C2=NOC1CN1CCN(CC(C)=Cc2ccc(F)cc2)CC1` (stereo not drawn) [Compound 107] were 7.94 nM, 10 nM and 50.1 nM.
On to `CC(=Cc1ccc(F)cc1)CN1CCN(CC2ON=C3c4ccc(N(C)CCOC(=O)C5CCC5)cc4OCC32)CC1` (stereo not drawn) [Compound 108], for which the values for the IC50 on hα2A receptor, at hα2C receptor and at h5-HT transporter were 200 nM, 50.1 nM and 79.4 nM, respectively.
With `CC(=Cc1ccc(F)cc1)CN1CCN(CC2ON=C3c4ccc(N(C)CCOC(=O)C5CC5)cc4OCC32)CC1` (stereo not drawn) [Compound 109], the IC50 at hα2A receptor was 158 nM; at hα2C receptor, 31.6 nM; at h5-HT transporter it was 39.8 nM.
As to `CC(=Cc1ccc(F)cc1)CN1CCN(CC2ON=C3c4ccc(N(C)CCNC(C)C(C)C)cc4OCC32)CC1` (stereo not drawn) [Compound 110], the IC50 is 39.8 nM at hα2A receptor, 5.01 nM on hα2C receptor and 5.01 nM on h5-HT transporter.
As for `CC(=Cc1ccc(F)cc1)CN1CCN(CC2ON=C3c4ccc(N(C)CCNC5CCC5)cc4OCC32)CC1` (stereo not drawn) [Compound 111], the values for the IC50 on hα2A receptor, on hα2C receptor and on h5-HT transporter were 25.1 nM, 6.31 nM and 12.6 nM, respectively.
For `CCCC(C)C(=O)Nc1cc2c(cc1OC)C1=NOC(CN3CCN(CC(C)=Cc4ccc(F)cc4)CC3)C1CO2` (stereo not drawn) [Compound 113], the IC50 at hα2A receptor was 79.4 nM; at hα2C receptor, 39.8 nM; at h5-HT transporter, 63.1 nM.
Turning to `CCC(C)C(=O)Nc1cc2c(cc1OC)C1=NOC(CN3CCN(CC(C)=Cc4ccc(F)cc4)CC3)C1CO2` (stereo not drawn) [Compound 114], the values for the IC50 on hα2A receptor, at hα2C receptor and at h5-HT transporter were 25.1 nM, 20 nM and 31.6 nM, respectively.
Turning to `COc1cc2c(cc1NC(=O)C1CCC1)OCC1C2=NOC1CN1CCN(CC(C)=Cc2ccc(F)cc2)CC1` (stereo not drawn) [Compound 115], the IC50 at hα2A receptor was 39.8 nM; on hα2C receptor, 39.8 nM; on h5-HT transporter it was 25.1 nM.
Turning to `COc1cc2c(cc1NCC(C)C)OCC1C2=NOC1CN1CCN(CC(C)=Cc2ccc(F)cc2)CC1` (stereo not drawn) [Compound 116], the values for the IC50 at hα2A receptor, at hα2C receptor and at h5-HT transporter were 200 nM, 158 nM and 79.4 nM, respectively.
With `CC(=Cc1ccc(F)cc1)CN1CCN(CC2ON=C3c4ccc(N(C)CCOC(=O)CC(C)(C)C)cc4OCC32)CC1` (stereo not drawn) [Compound 117], the results for the IC50 on hα2A receptor, at hα2C receptor and on h5-HT transporter were 251 nM, 126 nM and 100 nM, respectively.
